Results reported in patent publication US6444691B1, “1,3-disubstituted ureas as ACAT inhibitors, and method of preparing thereof” (Solvakofarma, a.s., priority 1997, dated 2002).

What was measured:
[1] = test system: rat liver ACAT (acylCoa:cholesterol acyltransferase); assay: In vitro inhibition of ACAT activity, rat liver microsomal fraction; type: biochemical; conditions: rat liver microsomes, concentration 2 μM, versus enzyme activity in 1% dimethylsulfoxide
Description: (§1) The biological activity of the substances was evaluated based on the in vitro inhibition of acylCoa:cholesterol acyltransferase (ACAT) activity. The enzyme was obtained from the microsomal fraction of rat liver cells and rabbit intestinal mucosa of animals fed with cholesterol. The substrates for the enzyme reaction included exogenous oleoyl co-enzyme A and endogenous cholesterol. ^14C-oleoyl co-enzyme A conversion to ^14C-cholesteryl oleate was monitored. From the mixture of extracted lipids, cholesteryl oleate was separated using thin-layer chromatography, and was quantified radiometrically. ACAT specific activity was expressed as the amount of cholesteryl oleate formed per minute per mg microsomal protein.
(§2) Efficiency was calculated as compared to enzyme activity measured in the presence of 1% dimethylsulfoxide used as the solvent to prepare solutions of the substances tested.

[2] = test system: rabbit intestinal mucosa ACAT (acylCoa:cholesterol acyltransferase); assay: In vitro inhibition of ACAT activity, rabbit intestinal mucosa microsomal fraction; type: biochemical; conditions: rabbit intestinal mucosa microsomes, concentration 2 μM, versus enzyme activity in 1% dimethylsulfoxide
Description: as §1, §2

| Efficiency (%) liver (ACAT inhibition) [1] [%] | Efficiency (%) mucosa (ACAT inhibition) [2] [%] | Compound |
| --- | --- | --- |
| 19 | 31 | 1-(2,4-Dimethylphenyl)-3-((4′-nitrophenylthio)-phenyl)-urea [Example 39] |
| 34 | 45 | 1-(3-Trifluoromethylphenyl)-3-((4′-nitrophenylthio)-phenyl)-urea [Example 44] |
| 37 | 55 | O=C(Nc1ccc(Oc2ccc([N+](=O)[O-])cc2)cc1)Nc1ccc(F)cc1F [Example 2] |
| 49 | 58 | O=C(Nc1ccc(Oc2ccc([N+](=O)[O-])cc2)cc1)Nc1cc(F)ccc1F [Example 3, 1-(2,5-Difluorophenyl)-3-((4′-nitrophenoxy)-phenyl)-urea] |
| 0 | 42 | O=C(Nc1ccc(Oc2ccc([N+](=O)[O-])cc2)cc1)Nc1c(F)cccc1F [Example 4, 1-(2,6-Difluorophenyl)-3-((4′-nitrophenoxy)-phenyl)-urea] |
| 0 | 0 | O=C(Nc1ccc(Oc2ccc([N+](=O)[O-])cc2)cc1)Nc1ccccc1Cl [Example 5, 1-(2-Chlorophenyl)-3-((4′-nitrophenoxy)-phenyl)-urea] |
| 20 | 25 | O=C(Nc1ccc(Oc2ccc([N+](=O)[O-])cc2)cc1)Nc1c(Cl)cccc1Cl [Example 7, 1-(2,6-Dichlorophenyl)-3-((4′-nitrophenoxy)-phenyl)-urea] |
| 0 | 0 | O=C(Nc1ccc(Oc2ccc([N+](=O)[O-])cc2)cc1)Nc1cc(Cl)cc(Cl)c1 [Example 8, 1-(3,5-Dichlorophenyl)-3-((4′-nitrophenoxy)-phenyl)-urea] |
| 0 | 0 | Cc1ccccc1NC(=O)Nc1ccc(Oc2ccc([N+](=O)[O-])cc2)cc1 [Example 9] |
| 0 | 0 | Cc1ccc(NC(=O)Nc2ccc(Oc3ccc([N+](=O)[O-])cc3)cc2)cc1 [Example 10, 1-(4-Methylphenyl)-3-((4′-nitrophenoxy)-phenyl)-urea] |
| 0 | 0 | Cc1ccc(NC(=O)Nc2ccc(Oc3ccc([N+](=O)[O-])cc3)cc2)c(C)c1 [Example 11, 1-(2,4-Dimethylphenyl)-3-((4′-nitrophenoxy)-phenyl)-urea] |
| 41 | 65 | Cc1cccc(C)c1NC(=O)Nc1ccc(Oc2ccc([N+](=O)[O-])cc2)cc1 [Example 12, 1-(2,6-Dimethylphenyl)-3-((4′-nitrophenoxy)-phenyl)-urea] |
| 0 | 0 | Cc1cc(C)cc(NC(=O)Nc2ccc(Oc3ccc([N+](=O)[O-])cc3)cc2)c1 [Example 13, 1-(3,5-Dimethylphenyl)-3-((4′-nitrophenoxy)-phenyl)-urea] |
| 50 | 67 | CC(C)c1cccc(C(C)C)c1NC(=O)Nc1ccc(Oc2ccc([N+](=O)[O-])cc2)cc1 [Example 14, 1-(2,6-Di-(methylethyl)-phenyl)-3-((4′-nitrophenoxy)-phenyl)-urea] |
| 46 | 42 | O=C(Nc1ccc(Oc2ccc([N+](=O)[O-])cc2)cc1)Nc1ccccc1C(F)(F)F [Example 15, 1-(2-Trifluoromethylphenyl)-3-((4′-nitrophenoxy)-phenyl)-urea] |
| 38 | 45 | O=C(Nc1ccc(Oc2ccc([N+](=O)[O-])cc2)cc1)Nc1cccc(C(F)(F)F)c1 [Example 16, 1-(3-Trifluoromethylphenyl)-3-((4′-nitrophenoxy)-phenyl)-urea] |
| 25 | 18 | O=C(Nc1ccc(Oc2ccc([N+](=O)[O-])cc2)cc1)Nc1ccc(C(F)(F)F)cc1 [Example 17, 1-(4-Trifluoromethylphenyl)-3-((4′-nitrophenoxy)-phenyl)-urea] |
| 26 | 34 | O=C(Nc1ccc(Oc2ccc([N+](=O)[O-])cc2)cc1)Nc1ccccn1 [Example 18] |

| Efficiency (%) liver (ACAT inhibition) [1] [%] | Efficiency (%) mucosa (ACAT inhibition) [2] [%] | Compound |
| --- | --- | --- |
| 0 | 0 | O=C(Nc1ccc(Oc2ccc([N+](=O)[O-])cc2)cc1)Nc1cccnc1 [Example 19] |
| 11 | 17 | O=C(Nc1ccncc1)Nc1ccc(Oc2ccc([N+](=O)[O-])cc2)cc1 [Example 20] |
| 14 | 22 | O=C(Nc1ccc(Oc2ccc([N+](=O)[O-])cc2)cc1)Nc1cccc2ccccc12 [Example 21] |
| 0 | 12 | O=C(Nc1ccc(Oc2ccc([N+](=O)[O-])cc2)cc1)Nc1ccc2ccccc2c1 [Example 22] |
| 43 | 58 | O=C(Nc1ccc(Oc2ccc([N+](=O)[O-])cc2)cc1)NC12CC3CC(CC(C3)C1)C2 [Example 23] |
| 0 | 34 | O=C(Nc1ccc(Sc2ccc([N+](=O)[O-])cc2)cc1)Nc1ccc([N+](=O)[O-])cc1 [Example 24, 1-(4-Nitrophenyl)-3-((4′-nitrophenylthio)-phenyl)-urea] |
| 0 | 23 | O=C(Nc1ccc(Sc2ccc([N+](=O)[O-])cc2)cc1)Nc1ccccc1F [Example 25, 1-(2-Fluorophenyl)-3-((4′-nitrophenylthio)-phenyl)-urea] |
| 25 | 27 | O=C(Nc1ccc(F)cc1)Nc1ccc(Sc2ccc([N+](=O)[O-])cc2)cc1 [Example 26, 1-(4-Fluorophenyl)-3-((4′-nitrophenylthio)-phenyl)-urea] |
| 16 | 23 | O=C(Nc1ccc(Sc2ccc([N+](=O)[O-])cc2)cc1)Nc1ccc(F)cc1F [Example 27, 1-(2,4-Difluorophenyl)-3-((4′-nitrophenylthio)-phenyl)-urea] |
| 0 | 16 | O=C(Nc1ccc(Sc2ccc([N+](=O)[O-])cc2)cc1)Nc1cc(F)ccc1F [Example 28, 1-(2,5-Difluorophenyl)-3-((4′-nitrophenylthio)-phenyl)-urea] |
| 11 | 25 | O=C(Nc1ccc(Sc2ccc([N+](=O)[O-])cc2)cc1)Nc1c(F)cccc1F [Example 29, 1-(2,6-Difluorophenyl)-3-((4′-nitrophenylthio)-phenyl)-urea] |
| 20 | 26 | O=C(Nc1ccc(Sc2ccc([N+](=O)[O-])cc2)cc1)Nc1ccccc1Cl [Example 30, 1-(2-Chlorophenyl)-3-((4′-nitrophenylthio)-phenyl)-urea] |
| 12 | 21 | O=C(Nc1ccc(Cl)cc1)Nc1ccc(Sc2ccc([N+](=O)[O-])cc2)cc1 [Example 31, 1-(4-Chlorophenyl)-3-((4′-nitrophenylthio)-phenyl)-urea] |
| 0 | 0 | O=C(Nc1ccc(Sc2ccc([N+](=O)[O-])cc2)cc1)Nc1cccc(Cl)c1Cl [Example 32, 1-(2,3-Dichlorophenyl)-3-((4′-nitrophenylthio)-phenyl)-urea] |
| 12 | 16 | O=C(Nc1ccc(Sc2ccc([N+](=O)[O-])cc2)cc1)Nc1ccc(Cl)cc1Cl [Example 33, 1-(2,4-Dichlorophenyl)-3-((4′-nitrophenylthio)-phenyl)-urea] |
| 15 | 21 | O=C(Nc1ccc(Sc2ccc([N+](=O)[O-])cc2)cc1)Nc1c(Cl)cccc1Cl [Example 34, 1-(2,6-Dichlorophenyl)-3-((4′-nitrophenylthio)-phenyl)-urea] |
| 0 | 20 | O=C(Nc1ccc(Sc2ccc([N+](=O)[O-])cc2)cc1)Nc1ccc(Cl)c(Cl)c1 [Example 35, 1-(3,4-Dichlorophenyl)-3-((4′-nitrophenylthio)-phenyl)-urea] |
| 0 | 0 | O=C(Nc1ccc(Sc2ccc([N+](=O)[O-])cc2)cc1)Nc1cc(Cl)cc(Cl)c1 [Example 36, 1-(3,5-Dichlorophenyl)-3-((4′-nitrophenylthio)-phenyl)-urea] |

| Compound | Efficiency (%) liver (ACAT inhibition) [1] [%] | Efficiency (%) mucosa (ACAT inhibition) [2] [%] |
| --- | --- | --- |
| 1-(2,6-Dimethylphenyl)-3-((4′-nitrophenylthio)-phenyl)-urea [Example 40] | 23 | 34 |
| O=C(Nc1ccc(Oc2ccc([N+](=O)[O-])cc2)cc1)Nc1ccccc1F [Example 1, 1-(2-Fluorophenyl)-3-((4′-nitrophenoxy)-phenyl)-urea] | 15 | 32 |
| O=C(Nc1ccc(Oc2ccc([N+](=O)[O-])cc2)cc1)Nc1cccc(Cl)c1Cl [Example 6, 1-(2,3-Dichlorohenyl)-3-((4′-nitrophenoxy)-phenyl)-urea] | 58 | 51 |
